These are literature values, as cited in patent US9744133B2, “Enhanced stability of novel liquid compositions” (Pfizer Inc., priority 2013, dated 2017).

For the data set the following is noted: 25° C.

For the compound `COc1ccccc1OCC(O)CO` (stereo not shown) [Guaifenesin], the Solubility in water result is “approximately 4 % by weight”.
